Experimental data published in PubChem BioAssay (NCI).
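Where inhibition never reached the appropriate level, the endpoint shown equals the highest concentration tested. Otherwise, values were interpolated linearly from a five-concentration, 48-hour dose response in 96-well plates. TGI denotes the concentration required for complete inhibition of growth.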

Legend:
Assay in all cases: DTP human tumour cell line panel, 48 h
HOP-92 NSCLC = tested on: HOP-92 NSCLC
HS 578T breast = tested on: HS 578T breast
K-562 leukemia = tested on: K-562 leukemia
MALME-3M melanoma = tested on: MALME-3M melanoma
MDA-N = tested on: MDA-N
NCI/ADR-RES ovarian = tested on: NCI/ADR-RES ovarian
OVCAR-4 ovarian = tested on: OVCAR-4 ovarian
T-47D breast = tested on: T-47D breast

SMILES	TGI (HOP-92 NSCLC) [µM]	TGI (HS 578T breast) [µM]	TGI (K-562 leukemia) [µM]	TGI (MALME-3M melanoma) [µM]	TGI (MDA-N) [µM]	TGI (NCI/ADR-RES ovarian) [µM]	TGI (OVCAR-4 ovarian) [µM]	TGI (T-47D breast) [µM]
C=C1c2nc3ccccc3n2C=C(c2ccc(OC)cc2)N1c1ccc(OCCN2CCOCC2)cc1	> 100	> 40	> 100	27.6	> 100	> 100	> 100	> 100
C#CCCCC(=O)N(C(=O)CS(=O)CC)c1ccccc1 (configuration not stated)	> 100	> 100	> 100	> 100	> 100	> 100	> 100	> 100
Cc1nc2c(=O)[nH]c3ccc(Cl)cc3c2o1	> 100	> 100	> 100	> 100	> 100	> 100	> 100	> 100
CN(C)c1ccc(/C=c2/c3cc([N+](=O)[O-])ccc3n3c2cc(-c2ccccc2)[n+]3C)cc1	3.16	7.97	7.42	1.18	1.66	> 100	8.33	1.81
CCOP(=O)(OCC)C(Nc1ccc(F)cc1)c1ccccc1 (configuration not stated)	> 100	> 100	> 100	> 100	> 100	> 100	> 100	> 100
CC(=O)OCC1OC(N2C(S)=C(C#N)C(c3ccco3)C(C(C)=O)=C2c2ccccc2)C(OC(C)=O)C(OC(C)=O)C1OC(C)=O (configuration not stated)	95.2	48.4	> 100	> 100	> 100	> 100	44.8	> 100
COC(=O)C(Cc1nc2ccccc2[nH]c1=O)C(=O)C(=O)Nc1cc(C(F)(F)F)ccc1Cl (configuration not stated)	32.5	43.2	> 100	31.4	> 100	53.3	27.9	44.7
O=C1c2cc([N+](=O)[O-])sc2C(=O)c2ccsc21	0.443	1.85	0.191	0.327	0.378	2.78	0.947	1.53
CC1CC[C@@]2(OC1)OC1C[C@H]3[C@@H]4CCC5CC(O)CC[C@]5(C)[C@H]4C/C(=N\N(C)C)[C@]3(C)C1[C@@H]2C (some centres not stated)	> 100	97.7	> 100	> 100	41.4	41.4	> 100	> 100
CC1(C)CC[C@]2(C(=O)O)[C@H](O)C[C@]3(C)C(=CC[C@@H]4[C@@]5(C)CC[C@H](OC6OC(C(=O)O)C(O)C(O)C6O)C(C)(C)[C@@H]5CC[C@]43C)[C@@H]2C1 (some centres not stated)	39.2	80.9	> 100	> 100	> 100	> 100	58.4	> 100
NCCCC[C@H](N)C(=O)Nc1ccc(-c2nc3ccccc3s2)cc1Cl	60	51.5	> 25	28.3	9.36	51.8		19.4
OCC(O)C(O)C(O)C(O)/C=N/Nc1nc(O)c(/C=C2\C=Nc3ccccc32)[nH]1 (configuration not stated)	> 100	> 100	> 100	> 100	> 100	> 100	> 100	> 100
COc1cc(C=O)cc(C=Nc2ccc(S(N)(=O)=O)cc2)c1O	21.7	6.16	> 100	7.78	28.1	> 100	> 100	> 100
O=C(Oc1cccc(Cl)c1)c1cc2cc(CCl)ccc2oc1=O	43.1	> 100	> 100	33.5	> 100	> 100	> 100	> 100
CN(C)CCNc1nc2c(no[n+]2[O-])c2ccccc12	45.1	76.6	87.7	37.1	91.4	58.7	61.1	> 100
CC1(C)c2ccccc2C(O)C12CCC(=O)CC2 (configuration not stated)	> 100	> 100	> 100	> 100	> 100	> 100	> 100	> 100
CC(=O)N(CN1C(=O)CCC1C(=O)O)c1ccccc1Cl (configuration not stated)	> 100	> 100	> 100	> 100	> 100	> 100	> 100	> 100
O=P1(c2ccccc2)C2=CCC=CC2C(c2ccccc2)N1Cc1ccccc1 (configuration not stated)	26.6	43.9	35.5	32.9	38.2	32.2		36.8
COP(C)(=O)C(Cc1c[nH]c2ccccc12)NC(=O)OCc1ccccc1 (configuration not stated)	> 100	> 100	> 100	> 100	> 100	> 100	> 100	> 100

SMILES	TGI (HOP-92 NSCLC) [µM]	TGI (HS 578T breast) [µM]	TGI (K-562 leukemia) [µM]	TGI (MALME-3M melanoma) [µM]	TGI (MDA-N) [µM]	TGI (NCI/ADR-RES ovarian) [µM]	TGI (OVCAR-4 ovarian) [µM]	TGI (T-47D breast) [µM]
CC1(C)CC2C(C1=O)C1(C)CCCC2(C)C1=O (configuration not stated)	> 100	> 100	> 100	> 100	> 100	> 100	> 100	> 100
C=CC(Br)(CBr)CCC(Br)C(C)C (configuration not stated)	23.2	7.73	6.94	28.1	6.37	33.8	17.9	0.971
COc1ccc(C[C@@H]2OC3(C=CC(=O)C=C3)O[C@H]2Cc2ccc(OC)cc2)cc1	1.82	23.3	> 100	4.22	1.62	2.64	2.14	> 100
C#CCOC(=O)C(N)CCSC (configuration not stated)	> 100	> 100		> 100	> 100	> 100		> 100
CC1CN=C(c2ccc(COc3ccc(C4=NCC(C)N4)cc3)cc2)N1 (configuration not stated)	> 100	> 100	> 100	> 100	> 100	> 100	> 100	> 100
O=[N+]([O-])c1ccc2ncccc2c1CCc1c([N+](=O)[O-])ccc2ncccc12	> 100	> 100	> 100	> 100	> 100	> 100	> 100	> 100
CN1B(c2ccccc2)N(C)C(=O)N(C)C1=O	> 100	> 100	> 100	> 100	> 100	> 100		> 100
CCCCCCCCCCCCCCCCP(=O)([O-])OCC[N+](C)(C)C	29	33.4	35.7	36.6	30	34.7	34.7	35.5
Cc1cc(C)c(N=Nc2c(O)c(S(=O)(=O)O)cc3cc(S(=O)(=O)O)ccc23)cc1C	> 100	> 100	> 100	> 100	> 100	> 100	> 100	> 100
N=C(c1cccs1)C1(N2CCCCC2)CCCCC1	37.5	> 100	32	30.2	> 100	44.7	54.9	27.1
CCCC1(N)CC(OC)OC(C)C1O (configuration not stated)	> 100	> 100	> 100	> 100	> 100	> 100		> 100
C=CC1(c2ccc(OC)cc2)OCCCO1	> 100	> 100	> 100	> 100	> 100	> 100	> 100	> 100
COc1cccc(-c2cc(=O)c3cc(Cl)cnc3[nH]2)c1	63.9	47.6	> 100	> 100	0.0239	0.783	76.3	> 100
CCOC(=O)CC[C@H](N)C(=O)N[C@H](Cc1ccc(N(CCCl)CCCl)cc1)C(=O)OCC	3.24	6.64	> 100	13.9	> 43.4	11.3	11.2	6.55
O=S(=O)(/N=C(\NO)Nc1ccc(Cl)cc1)c1ccc(-c2ccccn2)s1	> 100	> 100	> 100	96.8	94.5	> 100	> 100	> 100
Nc1ccc(-c2nc3ccccc3s2)cc1Br	> 100	> 100	> 100	> 100	> 100	> 100	> 100	> 100
Cc1sc2nc3n(c(=O)c2c1C)N=C(c1ccc([N+](=O)[O-])cc1)CS3	> 100	> 100	> 100	> 100	> 100	> 100		> 100
C=CCN1CCC2(CC1)NC(=O)c1ccccc1O2	> 100	> 100	> 100	> 100	> 100	> 100	> 100	> 100
CCN(CC)CCC(=O)c1ccc(Oc2ccc(F)cc2)cc1	34	60.2	> 100	34.9	31.9	83.4	> 100	42
